Laboratory results from ChEMBL document CHEMBL2146470, “Novel Carboxamide-Based Allosteric MEK Inhibitors: Discovery and Optimization Efforts toward XL518 (GDC-0973)” (ACS Med Chem Lett, 2012).

How the values were obtained:
[1] = target: Dual specificity mitogen-activated protein kinase kinase 1 (Homo sapiens, UniProt Q02750)
Description: Inhibition of MEK1-mediated ERK2 T202/Y204 phosphorylation using biotinylated MBP as substrate preincubated for 30 mins measured after 100 mins by cRAF-MEK-ERK enzyme coupled assay

[2] = target: Dual specificity mitogen-activated protein kinase kinase; MEK1/2 (Homo sapiens, UniProt P36507+Q02750)
Description: Inhibition of MEK-mediated ERK T202/Y204 phosphorylation in human MDA-MB-231T cells after 1 hr by immunoblotting

[3] = system: Brain; test: Drug metabolism in brain of nude NCr mouse xenografted with human MDA-MB-231T cells assessed as 3,4-difluoro-2-(2-fluoro-4-iodophenylamino)benzoic acid level at 30 mg/kg, po measured after 24 hrs by LC-MS analysis; format: ADME, organism-based; parameters: dose 30 mg/kg, route oral; settings: in vivo
[4] = Drug metabolism in tumor of nude NCr mouse xenografted with human MDA-MB-231T cells assessed as 3,4-difluoro-2-(2-fluoro-4-iodophenylamino)benzoic acid level at 30 mg/kg, po measured after 24 hrs by LC-MS analysis; format: ADME, organism-based, Neoplasm; parameters: dose 30 mg/kg, route oral; settings: in vivo
[5] = system: Plasma; test: Drug metabolism in plasma of nude NCr mouse xenografted with human MDA-MB-231T cells assessed as 3,4-difluoro-2-(2-fluoro-4-iodophenylamino)benzoic acid level at 30 mg/kg, po measured after 24 hrs by LC-MS analysis; format: ADME, organism-based; parameters: dose 30 mg/kg, route oral; settings: in vivo
[6] = system: Plasma; test: Drug metabolism in plasma of nude NCr mouse xenografted with human MDA-MB-231T cells assessed as 3,4-difluoro-2-(2-fluoro-4-iodophenylamino)benzoic acid level at 30 mg/kg, po measured after 2 hrs by LC-MS analysis; format: ADME, organism-based; parameters: dose 30 mg/kg, route oral; settings: in vivo
[7] = system: Brain; test: Drug metabolism in brain of nude NCr mouse xenografted with human MDA-MB-231T cells assessed as 3,4-difluoro-2-(2-fluoro-4-iodophenylamino)benzoic acid level at 30 mg/kg, po measured after 2 hrs by LC-MS analysis; format: ADME, organism-based; parameters: dose 30 mg/kg, route oral; settings: in vivo
[8] = Drug metabolism in tumor of nude NCr mouse xenografted with human MDA-MB-231T cells assessed as 3,4-difluoro-2-(2-fluoro-4-iodophenylamino)benzoic acid level at 30 mg/kg, po measured after 2 hrs by LC-MS analysis; format: ADME, organism-based, Neoplasm; parameters: dose 30 mg/kg, route oral; settings: in vivo

Chain of Dual specificity mitogen-activated protein kinase kinase 1 (Q02750 whole entry): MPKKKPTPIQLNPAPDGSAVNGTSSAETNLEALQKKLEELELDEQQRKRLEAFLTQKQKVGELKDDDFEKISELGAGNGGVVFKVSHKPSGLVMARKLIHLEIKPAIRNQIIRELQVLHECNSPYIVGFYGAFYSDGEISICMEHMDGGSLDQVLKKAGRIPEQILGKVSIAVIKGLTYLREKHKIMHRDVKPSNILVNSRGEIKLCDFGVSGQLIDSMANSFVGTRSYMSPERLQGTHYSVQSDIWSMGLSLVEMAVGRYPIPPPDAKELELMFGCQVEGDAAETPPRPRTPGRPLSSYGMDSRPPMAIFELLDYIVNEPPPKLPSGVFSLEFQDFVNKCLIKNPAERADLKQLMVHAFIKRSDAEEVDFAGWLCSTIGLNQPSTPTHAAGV

SMILES | IC50 [1] | IC50 [2] | Drug metabolism [3] | Drug metabolism [4] | Drug metabolism [5] | Drug metabolism [6] | Drug metabolism [7] | Drug metabolism [8]
O=C(c1ccc(F)c(F)c1Nc1ccc(I)cc1F)N1CC(O)(CO)C1 | 0.027 µM | 0.029 µM | – | – | – | – | – | –
CC(C)(C)NCC1(O)CN(C(=O)c2ccc(F)c(F)c2Nc2ccc(I)cc2F)C1 | 0.0048 µM | 0.011 µM | – | – | – | – | – | –
O=C(O)c1ccc(F)c(F)c1Nc1ccc(I)cc1F | 0.0195 µM | 0.102 µM | < 0.005 µM | < 0.005 µM | 0.21 µM | 0.01 µM | < 0.005 µM | < 0.005 µM
C[C@@H](N)C1(O)CN(C(=O)c2ccc(F)c(F)c2Nc2ccc(I)cc2F)C1 | 0.016 µM | 0.164 µM | – | – | – | – | – | –
